In patent US5099030A, “Novel compounds, pharmaceutical compositions, and methods for treating inflammation and pain” (The Procter & Gamble Company, priority 1991, dated 1992):

What was measured:
Rodent Hot Plate Test = assay type: in vivo, male Sprague-Dawley rats
Procedure: The degree of thermal analgesia obtained is determined using the "rodent hot plate test" (RHP). The RHP system is designed to detect and evaluate agents which elevate the threshold for the perception of pain. Classically, this method has been utilized primarily to evaluate opioid (narcotic) analgesic agents, such as morphine.
Male Sprague-Dawley rats (Charles River Breeding Laboratories Inc.) weighing between 100 and 125 grams upon arrival are used to evaluate the compounds of the present invention. Animals are double housed in stainless steel cages, and are fed Purina Rat Chow and tap water ad libitum. The animals are food fasted the afternoon proceeding the day of the study, and food is returned 5 hours post-treatment. Animals not being dosed by oral gavage are not fasted.
The apparatus for evaluating analgesic activity consists of an insulated copper hot plate whose surface is maintained at 55°±0.5° C. by a circulating water bath. A bottomless glass container (12" (30 cm) tall by 8" (20 cm) diameter) is used to restrict the animal to a defined area of the hot plate. After dosing, the animal is placed through the top opening of the container, and a stop watch is started when the animal makes contact with the plate. The stop-watch is stopped upon either of the following visually observed end points: (1) licking or biting of either hind paw, or (2) jumping. If the jump is not successful but both hind paws leave the surface of the plate in an effort to jump, this is considered jumping. The stop-watch is stopped at the end point and the animal is immediately removed from the hot plate. The time (latency) between the initial contact of the animal on the hot plate and the endpoint is recorded.
Prior to dosing, animals are tested on the hot plate. This is denoted as pretest or base line latency. Usually, the animals are dosed by oral gavage, using a 1 cubic cm glass syringe connected to a size 8 french catheter. The dose volume is 5 ml/kg. On occasion, the animals are dosed by either subcutaneous administration or intravenous injection. Using the subcutaneous administration, a 1 ml tuberculin syringe is connected to a 25 gauge 5/8 inch needle, and injected under the skin in the neck or back region. For intravenous dosing, a 1 ml tuberculin syringe is connected to a 25 gauge 3/4 inch winged infusion set, and injected into the tail vein. The dose volume for subcutaneous and intravenous routes is 1 ml/kg. The latency times are typically recorded at 1.5, 3, 5, and 24 hours post-treatment. Much shorter times are recorded for an intravenous administration.

[1] = Topical application to human forearm (Example X); assay type: in vivo; conditions: for local analgesic effect: replacing N-((4-(2-methyl-2-aminopropoxy)-3-methoxyphenyl)-methyl)-9Z-octadecenamide
Procedure: A composition for topical administration is prepared by combining the following ingredients:
The octadecenamide is dissolved in a solution containing the other ingredients. Application of 0.4 ml of the resulting liquid to a 80 cm^2 portion of the forearm of a 60 kg human produces local analgesia which lasts approximately two days.

[2] = Oral soft gelatin capsules in human (Example VIII); assay type: in vivo; conditions: two oral capsules, 225 mg of composition each, 60 kg human
Procedure: (§1) A composition for oral administration is prepared by combining the following ingredients:
The octadecenamide is dissolved in the sesame oil with the aid of sonication and is packaged in soft gelatin capsules using methods known in the art.

[3] = Oral syrup in human (Example IX); assay type: in vivo; conditions: one teaspoon of syrup, 70 kg adult human
Procedure: as §1
The above ingredients are combined to produce a syrup and are packaged under sterile conditions in 6 oz. bottles.

[4] = Mouse Abdominal Constriction Assay (phenylquinone writhing); assay type: in vivo, male CF-1 mice; conditions: for % Analgesia (3 hrs post-dose): 3 hrs post-dose (time of peak analgesic effect)
Procedure: Compounds of the present invention are tested for analgesic activity using the mouse abdominal constriction assay. This assay is described in Hendershot and Forsaith, J. Pharmacol. Exo.
Male CF-1 mice (Charles River Breeding Laboratories, Inc.), weighing approximately 20 grams and food fasted overnight, are used in these assays. Test compounds are prepared for oral (p.o.) or subcutaneous (s.c.) administration, with compounds of the present invention being prepared in acidified (1N acetic acid) distilled deionized water so that the appropriate dose is given in 0.2 mls to a 20 gram mouse.
Ten minutes after the i.p. injection of phenylquinone, the number of full body writhes are counted for the succeeding ten minutes. Percent analgesia in this assay is calculated as follows: [formula]

[5] = 100 mg/kg oral, 24 hr post dose
[6] = 0.4 ml to 80 cm^2 of forearm, 60 kg human

COc1ccc2c3c1O[C@H]1[C@@H](O)C=C[C@H]4[C@@H](C2)N(C)CC[C@@]341 [Codeine Phosphate, reference compound]
Mean Latency Times (Rodent Hot Plate Test; 50 mg/kg oral, 1 hr post dose): 8.7 s
Mean Latency Times (Rodent Hot Plate Test; 50 mg/kg oral, 2 hr post dose): 6.4 s
Mean Latency Times (Rodent Hot Plate Test; 50 mg/kg oral, 4 hr post dose): 6.5 s
Mean Latency Times (Rodent Hot Plate Test; 100 mg/kg oral, 1 hr post dose): 8.5 s
Mean Latency Times (Rodent Hot Plate Test; 100 mg/kg oral, 2 hr post dose): 8.9 s
Mean Latency Times (Rodent Hot Plate Test; 100 mg/kg oral, 4 hr post dose): 6.0 s
Mean Latency Times (Rodent Hot Plate Test; 200 mg/kg oral, 1 hr post dose): 16.9 s
Mean Latency Times (Rodent Hot Plate Test; 200 mg/kg oral, 2 hr post dose): 21.0 s
Mean Latency Times (Rodent Hot Plate Test; 200 mg/kg oral, 4 hr post dose): 11.7 s
Mean Latency Times (Rodent Hot Plate Test; 400 mg/kg oral, 1 hr post dose): 26.5 s
Mean Latency Times (Rodent Hot Plate Test; 400 mg/kg oral, 2 hr post dose): 28.4 s
Mean Latency Times (Rodent Hot Plate Test; 400 mg/kg oral, 4 hr post dose): 24.6 s

CCCCCCCC/C=C\CCCCCCCCNC(=O)Cc1ccc(OCCN)c(OC)c1 [N-(9Z-octadecenyl)-4-(2-aminoethoxy)-3-methoxyphenylacetamide]
local analgesic effect [1]: substantially similar local analgesic effect
Mean Latency Times (Rodent Hot Plate Test; 10 mg/kg oral, 1.5 hr post dose): 6.7 s
Mean Latency Times (Rodent Hot Plate Test; 10 mg/kg oral, 3 hr post dose): 15.3 s
Mean Latency Times (Rodent Hot Plate Test; 10 mg/kg oral, 5 hr post dose): 13.5 s
Mean Latency Times (Rodent Hot Plate Test; 10 mg/kg oral, 24 hr post dose): 9.1 s
Mean Latency Times (Rodent Hot Plate Test; 25 mg/kg oral, 1.5 hr post dose): 10.5 s
Mean Latency Times (Rodent Hot Plate Test; 25 mg/kg oral, 3 hr post dose): 11.2 s
Mean Latency Times (Rodent Hot Plate Test; 25 mg/kg oral, 5 hr post dose): 10.8 s
Mean Latency Times (Rodent Hot Plate Test; 25 mg/kg oral, 24 hr post dose): 8.0 s
Mean Latency Times (Rodent Hot Plate Test; 50 mg/kg oral, 1.5 hr post dose): 24.5 s
Mean Latency Times (Rodent Hot Plate Test; 50 mg/kg oral, 3 hr post dose): 12.2 s
Mean Latency Times (Rodent Hot Plate Test; 50 mg/kg oral, 5 hr post dose): 10.6 s
Mean Latency Times (Rodent Hot Plate Test; 50 mg/kg oral, 24 hr post dose): 15.9 s
Mean Latency Times (Rodent Hot Plate Test; 100 mg/kg oral, 1.5 hr post dose): 16.4 s
Mean Latency Times (Rodent Hot Plate Test; 100 mg/kg oral, 3 hr post dose): 13.4 s
Mean Latency Times (Rodent Hot Plate Test; 100 mg/kg oral, 5 hr post dose): 11.9 s
Mean Latency Times (Rodent Hot Plate Test; [5]): 21.5 s
analgesia [2]: increased analgesic effect
reduction of inflammation [2]: substantially similar reduction of inflammation
analgesia [3]: producing analgesia
reduction of inflammation [3]: reducing inflammation

CCCCCCCC/C=C\CCCCCCCC(=O)NCc1ccc(OC[C@@H](N)C(C)C)c(OC)c1 [N-((4-(2(S)-amino-3-methylbutoxy)-3-methoxyphenyl)methyl)-9Z-octadecenamide]
local analgesic effect [1]: substantially similar local analgesic effect
analgesia [2]: increased analgesic effect
reduction of inflammation [2]: substantially similar reduction of inflammation
analgesia [3]: substantially similar reduction of inflammation and analgesic effect
reduction of inflammation [3]: substantially similar reduction of inflammation

CCCCCCCC/C=C\CCCCCCCC(=O)NCc1ccc(OCC(N)C(=O)O)c(OC)c1 (centres unmarked) [N-((4-(2-amino-2-carboxyethoxy)-3-methoxyphenyl)-methyl)-9Z-octadecenamide]
local analgesic effect [1]: substantially similar local analgesic effect
analgesia [2]: increased analgesic effect
reduction of inflammation [2]: substantially similar reduction of inflammation
analgesia [3]: substantially similar reduction of inflammation and analgesic effect
reduction of inflammation [3]: substantially similar reduction of inflammation

CCCCCCCC/C=C\CCCCCCCC(=O)NCc1ccc(OCC(N)CO)c(OC)c1 (centres unmarked) [N-((4-(2-amino-3-hydroxypropoxy)-3-methoxyphenyl)-methyl)-9Z-octadecenamide]
local analgesic effect [1]: substantially similar local analgesic effect
analgesia [2]: increased analgesic effect
reduction of inflammation [2]: substantially similar reduction of inflammation
analgesia [3]: substantially similar reduction of inflammation and analgesic effect
reduction of inflammation [3]: substantially similar reduction of inflammation

CCCCCCCCC(=O)NCc1ccc(OCCN)c(OC)c1 [N-((4-(2-aminoethoxy)-3-methoxyphenyl)-methyl)-nonanamide]
Mean Latency Times (Rodent Hot Plate Test; 50 mg/kg oral, 3 hr post dose): 7.5 s
Mean Latency Times (Rodent Hot Plate Test; 50 mg/kg oral, 5 hr post dose): 7.2 s
Mean Latency Times (Rodent Hot Plate Test; 50 mg/kg oral, 24 hr post dose): 8.1 s
Mean Latency Times (Rodent Hot Plate Test; 100 mg/kg oral, 3 hr post dose): 9.9 s
Mean Latency Times (Rodent Hot Plate Test; 100 mg/kg oral, 5 hr post dose): 10.2 s
Mean Latency Times (Rodent Hot Plate Test; [5]): 12.3 s
Mean Latency Times (Rodent Hot Plate Test; 200 mg/kg oral, 3 hr post dose): 10.8 s
Mean Latency Times (Rodent Hot Plate Test; 200 mg/kg oral, 5 hr post dose): 16.4 s
Mean Latency Times (Rodent Hot Plate Test; 200 mg/kg oral, 24 hr post dose): 22.0 s
Mean Latency Times (Rodent Hot Plate Test; 300 mg/kg oral, 3 hr post dose): 14.1 s
Mean Latency Times (Rodent Hot Plate Test; 300 mg/kg oral, 5 hr post dose): 14.6 s
Mean Latency Times (Rodent Hot Plate Test; 300 mg/kg oral, 24 hr post dose): 20.3 s
analgesia [2]: increased analgesic effect
reduction of inflammation [2]: substantially similar reduction of inflammation
analgesia [3]: substantially similar reduction of inflammation and analgesic effect
reduction of inflammation [3]: substantially similar reduction of inflammation

CCCCCCCC/C=C\CCCCCCCC(=O)NCc1ccc(OCC(C)(C)N)c(OC)c1 [N-((4-(2-methyl-2-aminopropoxy)-3-methoxyphenyl)-methyl)-9Z-octadecenamide]
duration of local analgesia [1, 6]: approximately two
skin irritation [1, 6]: Little or no skin irritation
analgesia [2]: increased analgesic effect
reduction of inflammation [2]: substantially similar reduction of inflammation

CCCCCCCCC(=O)NCc1ccc(OCC(C)(C)N)c(OC)c1 [N-((4-(2-methyl-2-aminopropoxy)-3-methoxyphenyl)-methyl)-nonanamide]
local analgesic effect [1]: substantially similar local analgesic effect

CCCCCCCC/C=C\CCCCCCCC(=O)NCc1ccc(OCCC(C)COCC(C)(C)N)c(OC)c1 (centres unmarked) [N-((4-(2-methyl-2-aminopropoxy)-3-methylbutoxy)-3-methoxyphenyl)methyl)-9Z-octadecenamide]
analgesia [3]: substantially similar reduction of inflammation and analgesic effect
reduction of inflammation [3]: substantially similar reduction of inflammation

CCCCCCCC/C=C\CCCCCCCC(=O)NCc1ccc(O)c(OC)c1 [N-Vanillyloleamide, N-vanillyloleamide, reference compound]
% Analgesia (3 hrs post-dose) ([4]; 0.75 mg/kg subcutaneous): 35.4%
% Analgesia (3 hrs post-dose) ([4]; 1.5 mg/kg subcutaneous): 62.8%
% Analgesia (3 hrs post-dose) ([4]; 2.25 mg/kg subcutaneous): 76.1%
% Analgesia (3 hrs post-dose) ([4]; 100 mg/kg oral): 36%
% Analgesia (3 hrs post-dose) ([4]; 200 mg/kg oral): 60%
% Analgesia (3 hrs post-dose) ([4]; 400 mg/kg oral): 79%
time of peak analgesic effect ([4]; mouse, in vivo): 3 hours post-dose

CCCCCCCCNC(=O)Cc1ccc(OCCN)c(OC)c1 [N-octanyl-4-(2-aminoethoxy)-3-methoxyphenylacetamide]
local analgesic effect [1]: substantially similar local analgesic effect
analgesia [2]: increased analgesic effect
reduction of inflammation [2]: substantially similar reduction of inflammation
analgesia [3]: substantially similar reduction of inflammation and analgesic effect
reduction of inflammation [3]: substantially similar reduction of inflammation
